Results from ChEMBL document CHEMBL1152147, “Design at the atomic level: design of biaryloxazolidinones as potent orally active antibiotics” (Bioorg Med Chem Lett, 2008).
pIC50: −log10 of the molar value. Converted amounts (≈) assume the structure as drawn.

Key:
Haemophilus influenzae [1] = experiment: Antimicrobial activity against Haemophilus influenzae parent strain RD1 by NCCLS method; format: functional
Streptococcus pyogenes [2] = experiment: Antimicrobial activity against erm (B) expressing Streptococcus pyogenes Msr 610 by NCCLS method; format: functional
Haemophilus influenzae [3] = experiment: Antimicrobial activity against Haemophilus influenzae 895 (AcrB-KO) by NCCLS method; format: functional
Escherichia coli = experiment: Inhibition of Escherichia coli translation; format: functional, organism-based
Streptococcus pneumoniae [4] = experiment: Antimicrobial activity against mef (A) expressing Streptococcus pneumoniae 02J1175 by NCCLS method; format: functional
Enterococcus faecalis [5] = experiment: Antimicrobial activity against Linezolid-resistant Enterococcus faecalis P5 by NCCLS method; format: functional
Streptococcus pneumoniae [6] = experiment: Antimicrobial activity against erm (B) expressing Streptococcus pneumoniae 02J1258 + L4 by NCCLS method; format: functional
Haemophilus influenzae [7] = experiment: Antimicrobial activity against Haemophilus influenzae 1100 by NCCLS method; format: functional
Staphylococcus aureus = experiment: Antimicrobial activity against methicillin-resistant Staphylococcus aureus 67-0 by NCCLS method; format: functional
Enterococcus faecalis [8] = experiment: Antimicrobial activity against vanB+ expressing Enterococcus faecalis 1069 by NCCLS method; format: functional
Enterococcus faecalis [9] = experiment: Antimicrobial activity against Linezolid-resistant Enterococcus faecalis ATCC 29212-P5 by NCCLS method; format: functional
Enterococcus faecium = experiment: Antimicrobial activity against vanA+ expressing Enterococcus faecium A6349 by NCCLS method
Haemophilus influenzae [10] = experiment: Antimicrobial activity against Haemophilus influenzae by NCCLS method; format: functional
Haemophilus influenzae [11] = experiment: Antimicrobial activity against Haemophilus influenzae A1950 by NCCLS method; format: functional
Streptococcus pyogenes [12] = experiment: Antimicrobial activity against erm (B) Streptococcus pyogenes msr610 by NCCLS method; format: functional

| SMILES | MIC (Haemophilus influenzae [1]) [µg/mL] | MIC (Streptococcus pyogenes [2]) [µg/mL] | MIC (Haemophilus influenzae [3]) [µg/mL] | pIC50 (Escherichia coli) | MIC (Streptococcus pneumoniae [4]) [µg/mL] | MIC (Enterococcus faecalis [5]) [µg/mL] | MIC (Streptococcus pneumoniae [6]) [µg/mL] | MIC (Haemophilus influenzae [7]) [µg/mL] | MIC (Staphylococcus aureus) [µg/mL] | MIC (Enterococcus faecalis [8]) [µg/mL] | MIC (Enterococcus faecalis [9]) [µg/mL] | MIC (Enterococcus faecium) [µg/mL] | MIC (Haemophilus influenzae [10]) [µg/mL] | MIC (Haemophilus influenzae [11]) [µg/mL] | MIC (Streptococcus pyogenes [12]) [µg/mL] |
| --- | --- | --- | --- | --- | --- | --- | --- | --- | --- | --- | --- | --- | --- | --- | --- |
| CC(=O)NC[C@H]1CN(c2ccc(-c3ccc(CNCc4ccncc4)cc3)c(F)c2)C(=O)O1 | 8 (≈ 17.8 µM) | 0.5 (≈ 1.11 µM) | 0.5 (≈ 1.11 µM) | 7.30 | 0.25 (≈ 0.557 µM) | 2 (≈ 4.46 µM) |  |  |  |  |  |  |  |  |  |
| CC(=O)NC[C@H]1CN(c2ccc(-c3ccc(Cn4cnnn4)cc3)c(F)c2)C(=O)O1 | 2 (≈ 4.87 µM) |  |  |  | 0.25 (≈ 0.609 µM) |  | 0.5 | 2 (≈ 4.87 µM) | 1 (≈ 2.44 µM) | 0.5 (≈ 1.22 µM) | 1 (≈ 2.44 µM) | 1 (≈ 2.44 µM) | 4 (≈ 9.75 µM) | 8 (≈ 19.5 µM) | 0.5 (≈ 1.22 µM) |
| CC(=O)NC[C@H]1CN(c2ccc(-c3ccc(CNCc4cnoc4)cc3)c(F)c2)C(=O)O1 | 2 (≈ 4.56 µM) |  |  |  | 0.125 (≈ 0.285 µM) |  | 0.125 | 1 (≈ 2.28 µM) |  | 0.5 (≈ 1.14 µM) | 2 (≈ 4.56 µM) | 1 (≈ 2.28 µM) | 4 (≈ 9.12 µM) | 8 (≈ 18.2 µM) | 0.125 (≈ 0.285 µM) |
| CC(=O)NC[C@H]1CN(c2ccc(-c3ccc(CNCc4ccnc5ccccc45)cc3)c(F)c2)C(=O)O1 | 8 (≈ 16 µM) | 0.5 (≈ 1 µM) | 1 (≈ 2.01 µM) | > 7.70 | 0.5 (≈ 1 µM) | 2 (≈ 4.01 µM) |  |  |  |  |  |  |  |  |  |
| CC(=O)NC[C@H]1CN(c2ccc(-c3ccc(CNCC#N)cc3)c(F)c2)C(=O)O1 | 4 (≈ 10.1 µM) |  |  |  | 0.25 (≈ 0.631 µM) |  | 0.25 | 4 (≈ 10.1 µM) | 0.5 (≈ 1.26 µM) | ≤ 0.25 | 1 (≈ 2.52 µM) | 1 (≈ 2.52 µM) | 8 (≈ 20.2 µM) | 8 (≈ 20.2 µM) | 0.25 (≈ 0.631 µM) |
| CC(=O)NC[C@H]1CN(c2ccc(-c3ccc(Cn4ncnn4)cc3)c(F)c2)C(=O)O1 | 4 (≈ 9.75 µM) |  |  |  | 0.125 (≈ 0.305 µM) |  | 0.25 | 4 (≈ 9.75 µM) | 0.5 (≈ 1.22 µM) | ≤ 0.25 | 1 (≈ 2.44 µM) | 0.5 (≈ 1.22 µM) | 8 (≈ 19.5 µM) | 8 (≈ 19.5 µM) | 0.125 (≈ 0.305 µM) |
| CC(=O)NC[C@H]1CN(c2ccc(-c3ccc(CNCCCF)cc3)c(F)c2)C(=O)O1 | 2 (≈ 4.79 µM) |  |  |  | 0.125 (≈ 0.299 µM) |  | 0.125 | 2 (≈ 4.79 µM) | 1 (≈ 2.4 µM) | 0.5 (≈ 1.2 µM) | 2 (≈ 4.79 µM) | 1 (≈ 2.4 µM) | 4 (≈ 9.58 µM) | 4 (≈ 9.58 µM) | 0.125 (≈ 0.299 µM) |
| CC(=O)NC[C@H]1CN(c2ccc(-c3ccc(Cn4ccnn4)cc3)c(F)c2)C(=O)O1 | 4 (≈ 9.77 µM) |  |  |  | 0.5 (≈ 1.22 µM) |  | 0.25 | 2 (≈ 4.88 µM) | 0.5 (≈ 1.22 µM) | 0.5 (≈ 1.22 µM) | 1 (≈ 2.44 µM) | 1 (≈ 2.44 µM) | 4 (≈ 9.77 µM) | 8 (≈ 19.5 µM) | 0.5 (≈ 1.22 µM) |
| CC(=O)NC[C@H]1CN(c2ccc(-c3ccc(CNCc4ccco4)cc3)c(F)c2)C(=O)O1 | 4 (≈ 9.14 µM) | 0.25 (≈ 0.571 µM) | 0.5 (≈ 1.14 µM) | 7.40 | 0.25 (≈ 0.571 µM) | 4 (≈ 9.14 µM) |  |  |  |  |  |  |  |  |  |
| CC(=O)NC[C@H]1CN(c2ccc(N3CCOCC3)c(F)c2)C(=O)O1 [LINEZOLID] | 16 (≈ 47.4 µM) | 1 (≈ 2.96 µM) | 8 (≈ 23.7 µM) | 5.34 |  | 32 (≈ 94.9 µM) |  | 16 (≈ 47.4 µM) |  |  | 32 (≈ 94.9 µM) |  | 32 (≈ 94.9 µM) | 32 (≈ 94.9 µM) | 1 (≈ 2.96 µM) |
| CC(=O)NC[C@H]1CN(c2ccc(-c3ccc(CNCc4cnn[nH]4)cc3)c(F)c2)C(=O)O1 [RADEZOLID] | 0.5 (≈ 1.14 µM) |  |  |  | 0.25 (≈ 0.57 µM) |  | 0.25 | 0.25 (≈ 0.57 µM) | 1 (≈ 2.28 µM) | ≤ 0.25 | 1 (≈ 2.28 µM) | 0.5 (≈ 1.14 µM) | 1 (≈ 2.28 µM) | 1 (≈ 2.28 µM) | 0.125 (≈ 0.285 µM) |
